Laboratory results from patent US12240844B2 (Voronoi, Inc., priority 2019, dated 2025).

Key:
[1] = molecular target: T1, human GST-DYRK1A (full length) (Homo sapiens, UniProt Q13627); experiment: GST-DYRK1A enzyme inhibition, ADP-Glo kinase assay; type: biochemical; settings: read-out: DYRK1 IC50
T1 construct: purified human GST-DYRK1A (full length, Thermo scientifics) enzyme; GST; purchased Thermo scientifics
Method in brief: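 Full-length human GST-DYRK1A (10 ng) incubated with 10 uM ATP and specific substrate for 1 h at 25° C in 40 mM Tris-HCl pH 7.4, 20 mM MgCl2, 0.5 mg/mL BSA, 50 uM DTT. ADP formation read by ADP-Glo luminescence; IC50 (nM) versus solvent control, triplicate.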

[2] = test system: MDA-MB-231 cell line; experiment: MDA-MB-231 cancer cell proliferation inhibition (Cell Titer-Glo); type: cell-based; settings: Homo sapiens, MDA-MB-231 triple-negative breast cancer cell line, 72 hours
Method in brief: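 GI50 comes from CellTiter-Glo luminescence, read 10 min after reagent addition at RT, following 72 h compound treatment. Eleven concentrations were used (⅓ steps, highest 10 μM final) on 2000 cells/well. MDA-MB-231 and MDA-MB-468 were grown in DMEM, SHP-77 in RPMI.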

[3] = molecular target: LRRK2 (Homo sapiens, UniProt Q5S007); experiment: LRRK2 enzyme inhibition, ADP-Glo kinase assay; type: biochemical; parameters: purchased Invitrogen PR8604B
Method in brief: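 Purified human LRRK2 (25 ng) in 40 mM Tris-HCl pH7.4, 20 mM MgCl2, 0.5 mg/ml BSA, 50 μM DTT with 10 μM ATP and substrate ([…]), 2 h at 25° C. Final compound 50 to 0.000001024 μM, 12-point dilution. ADP-Glo luminescence vs solvent control; IC50 (nM).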

[4] = molecular target: LRRK2 (G2019S) (Homo sapiens, UniProt Q5S007, G2019S); experiment: LRRK2 G2019S enzyme inhibition, ADP-Glo kinase assay; type: biochemical; parameters: purchased SignalChem L10-12GG
Method in brief: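 Purified human LRRK2 G2019S (16 ng) with 25 μM ATP and 0.2 μg substrate, 2 h at 25° C in 40 mM Tris-HCl pH 7.4, 20 mM MgCl2, 0.5 mg/ml BSA, 50 μM DTT; compound at 12 final concentrations from 50 μM downward. ADP-Glo luminescence versus solvent control gave IC50 (nM).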

LRRK2, sequence (Q5S007 970-2527 limits assumed): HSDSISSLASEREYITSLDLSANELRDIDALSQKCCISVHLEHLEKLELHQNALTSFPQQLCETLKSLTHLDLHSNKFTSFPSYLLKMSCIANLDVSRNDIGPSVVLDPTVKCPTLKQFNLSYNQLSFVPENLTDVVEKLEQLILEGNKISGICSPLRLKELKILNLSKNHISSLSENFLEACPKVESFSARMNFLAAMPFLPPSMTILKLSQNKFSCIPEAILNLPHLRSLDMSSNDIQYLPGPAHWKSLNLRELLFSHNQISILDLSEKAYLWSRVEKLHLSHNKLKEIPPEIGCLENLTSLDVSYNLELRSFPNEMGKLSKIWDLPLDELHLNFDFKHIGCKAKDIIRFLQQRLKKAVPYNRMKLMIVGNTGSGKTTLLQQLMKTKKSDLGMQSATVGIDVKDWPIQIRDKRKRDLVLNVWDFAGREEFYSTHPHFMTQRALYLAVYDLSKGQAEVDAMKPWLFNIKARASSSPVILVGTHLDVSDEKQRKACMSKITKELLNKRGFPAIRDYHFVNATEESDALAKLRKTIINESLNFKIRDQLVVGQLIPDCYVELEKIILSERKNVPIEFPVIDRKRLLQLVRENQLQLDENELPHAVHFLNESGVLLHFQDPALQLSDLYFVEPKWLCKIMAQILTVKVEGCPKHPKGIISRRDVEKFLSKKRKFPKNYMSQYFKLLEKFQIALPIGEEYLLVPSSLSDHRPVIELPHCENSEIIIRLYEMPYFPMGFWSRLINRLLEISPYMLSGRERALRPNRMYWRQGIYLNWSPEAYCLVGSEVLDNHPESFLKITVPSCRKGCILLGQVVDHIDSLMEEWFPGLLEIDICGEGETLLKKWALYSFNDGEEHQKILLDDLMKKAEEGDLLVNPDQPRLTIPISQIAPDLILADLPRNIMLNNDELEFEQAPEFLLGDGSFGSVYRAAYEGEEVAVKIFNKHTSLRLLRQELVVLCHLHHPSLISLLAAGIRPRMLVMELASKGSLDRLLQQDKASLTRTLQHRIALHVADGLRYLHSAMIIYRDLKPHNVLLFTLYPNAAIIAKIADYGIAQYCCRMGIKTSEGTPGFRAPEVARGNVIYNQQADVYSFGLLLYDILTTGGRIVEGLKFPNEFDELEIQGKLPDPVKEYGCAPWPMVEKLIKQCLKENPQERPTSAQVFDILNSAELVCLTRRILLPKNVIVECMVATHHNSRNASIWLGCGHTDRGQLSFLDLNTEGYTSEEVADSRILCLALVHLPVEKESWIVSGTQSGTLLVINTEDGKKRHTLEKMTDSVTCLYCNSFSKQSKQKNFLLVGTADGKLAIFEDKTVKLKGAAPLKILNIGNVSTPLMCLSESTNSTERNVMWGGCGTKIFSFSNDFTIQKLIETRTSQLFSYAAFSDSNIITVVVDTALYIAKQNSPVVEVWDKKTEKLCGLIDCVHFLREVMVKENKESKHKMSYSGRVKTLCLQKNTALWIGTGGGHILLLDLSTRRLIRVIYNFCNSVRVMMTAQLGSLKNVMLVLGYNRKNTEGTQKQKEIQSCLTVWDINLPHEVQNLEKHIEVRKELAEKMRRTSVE
LRRK2 (G2019S), sequence (Q5S007 970-2527 G2019S limits assumed): as the sequence (Q5S007 970-2527 limits assumed) above, with G1050S counted along it

Row | Structure (SMILES) | IC50 [1] [nM] | GI50 [2] [nM] | IC50 [3] [nM] | IC50 [4] [nM]
1 | CCNc1cc(Nc2ccc(P3(=O)CCN(C(C)=O)CC3)cc2OC)nc2[nH]cc(C(F)(F)F)c12 [Example 42, 1-(4-(4-((4-(ethylamino)-3-(trifluoromethyl)-1H-pyrrolo[2,3-b]pyridin-6-yl)amino)-3-methoxyphenyl)-4-oxido-1,4-azaphosphinan-1-yl)ethan-1-one] | < 100 | 301 to 1000 | < 100 | 101 to 300
2 | COCCNc1cc(Nc2ccc(C(=O)N3CCC(N4CCOCC4)CC3)c3c2OCC3)nc2[nH]cc(C(F)(F)F)c12 [Example 55, (7-((4-((2-methoxyethyl)amino)-3-(trifluoromethyl)-1H-pyrrolo[2,3-b]pyridin-6-yl)amino)-2,3-dihydrobenzofuran-4-yl)(4-morpholinopiperidin-1-yl)methanone] | < 100 | 301 to 1000 | < 100 | < 100
